We go through 19 compounds from patent US20240050526A1, “CATH2 DERIVATIVES FOR STIMULATING INNATE IMMUNE MEMORY” (priority 2020, published 2024).

Holding throughout (assay type): cell-based, human
In assay [1] the test system is dTHP-1 cells. The assay can be described thus: DCATH-2 training of dTHP-1 cells in the presence of pathway inhibitors. Conditions: 1 μg/ml Pam3CSK4; for effect of inhibitor on DCATH-2 training (amplified Pam3CSK4-induced TNFα production): inhibitor 1 h before and during priming with 5 μM DCATH-2, 3 days rest; for Pam3CSK-induced TNFα production in the presence of inhibitor: reference level of FIG. 4a, means, SEM, 3 experiments. The procedure:
(§1) THP-1 cells were cultured in Iscove Modified Dulbecco Media (IMDM, Gibco) containing Glutamax-I, sodium pyruvate, 10% fetal calf serum at 37° C. and 5% CO2. For differentiation to macrophage-like cells, THP-1 cells were grown in IMDM/FCS medium containing 8 of 100 nM PMA and seeded in 96 wells (5×10^4 cells/well), 24 wells (3×10^5 cells/well) or 6 wells plates (1×10^6 cells/well) during 48 h. Subsequently, dTHP-1 were washed with pre-warmed IMDM/FCS, left overnight to rest and primed during 1 to 24 h with 2-10 μM peptides of fresh IMDM/FCS medium, washed 3 times in medium. After 3 days rest cells were stimulated with various stimuli: S. minnesota LPS (10 ng/ml), E. coli LPS (10 or 50 ng/ml), Pam3CSK4 (1 μg/ml) or Pam2CSK4 (1 μg/ml). After 24 h supernatants were collected and stored at −20° C. For inhibition, dTHP-1 cells were pre-incubated for 1 h before priming and during priming with rapamycin (10 nM), AICAR (50 nM), metformin (0.3 mM), wortmannin (1 μM), ascorbate (50 μM), SB203580 (10 μM), PD98059 (10 μM), SP600125 (10 μM), EGCG (40 μM), anacardic acid (50 μM), curcumin (10 μM), garcinol (10 μM), Bay-11-7085 (10 μM), MTA (1 mM), MM-102 (25 μM), suramin (50 μM), KN-62 (3 μM), nystatin (10 μg/ml), and chlorpromazine (10 μM).
(§2) TNFα, IL-6, CXCL10 and CCL5 production were measured using ELISA (R&D systems) following instructions of the manufacturer.

The subject of assay [2] is dTHP-1 cells. Description: Confocal imaging of Tamra-labelled DCATH-2 uptake by dTHP-1 cells. The settings on record: 1 h pre-incubation with inhibitor, 3 h priming with Tamra-DCATH-2. The procedure: 3×10^5 dTHP-1 cells were seeded on 8 mm coverslips in 24 wells plates and differentiated for 48 h with 100 nM PMA in 0.5 ml medium. Wells were washed 3 times, and cells were primed for 3 h with Tamra-labelled DCATH-2 (TD) or medium. For inhibition conditions, cells were pre-incubated before priming for 1 h with 3 μM KN-62, 50 μM suramin, 10 μM chlorpromazine, or 10 μg/ml nystatin. After priming, coverslips were washed 3 times with warm medium and fixated for 30 min in 4% paraformaldehyde solution (0.1 M phosphate buffer, pH 7.4). After staining of nuclei with Hoechst (Molecular probes) for 10 min, coverslips were mounted on glass slides using ProLong glass antifade mountant (Thermofisher, P36980). Confocal images were acquired on a Leica SPE-II using the 100×HCX PLAN APO (NA=1.4-0.7) objective. Imaging was performed using a quadruple band beam splitter for the 561 nm laser. Visualization of Hoechst stained dTHP-1 cells was done with a 405 nm (100 mW) Coherent Violet Cube laser. Image analysis was done using composite images of both channels. In brief, regions of interest were set manually using DIC for segmentation. To isolate puncta from background noise, a threshold was set for the Tamra channel and intensity and area of puncta were measured partially automated using a script.

Assay [3] deals with dTHP-1 cells. Description: Innate immune training of dTHP-1 cells by cathelicidin peptides, cytokine ELISA after TLR agonist re-stimulation. The settings on record: priming 24 h with 10 μM peptide; 100 nM PMA dTHP-1 cells; 3 days rest; re-stimulated with 10 ng/ml Salmonella minnesota LPS. The procedure:
as §1, §2
Extrapolating from the trained immunity experiments with human monocytes, we examined if mature cathelicidin peptides could induce trained immunity in TH P-1 cells, a human monocyte cell line. TH P-1 cells were differentiated with 100 nM or 8 nM phorbol 12-myristate 13-acetate (PMA) during 48 h washed 3 times and, after overnight rest, primed with 2-10 μM of chicken cathelicidin 2 (CATH-2), its full D-analog DCATH-2 or human cathelicidin LL-37 for 24 h. Subsequently, dTHP-1 cells were washed 3 times and re-stimulated after a 3-day rest period with TLR agonists (24 h) (FIG. 1a). […] Priming with 5 μM of its full-D-amino acid analog DCATH-2 amplified 2- to 3-fold the TNFα and IL-6 production in response to LPS stimulation. A minor response was found for priming with 10 μM LL-37, which amplified IL-6 production 1.4-fold in 100 nM differentiated cells.
Background: In an ELISA, binding on a coated surface is turned into a signal by an enzyme label.

Ends that are not written are not given here.

Regarding `COc1cccc(-c2cc(=O)c3ccccc3o2)c1N` [PD58059], the “effect of inhibitor on DCATH-2 training (amplified Pam3CSK4-induced TNFα production)” value (“effect of inhibitor on DCATH-2 training” for short) in the assay on dTHP-1 cells [1] is recorded as “no effect”.
Regarding `O=C1O[C@H]([C@@H](O)CO)C(O)=C1O` [ascorbate], the “Pam3CSK-induced TNFα production in the presence of inhibitor” value in the assay with dTHP-1 cells [1] worked out at 421 ± 112 pg/mL.
As to `CN([C@@H](Cc1ccc(OS(=O)(=O)c2cccc3cnccc23)cc1)C(=O)N1CCN(c2ccccc2)CC1)S(=O)(=O)c1cccc2cnccc12` [KN-62], in the assay on dTHP-1 cells [1], the “effect of inhibitor on DCATH-2 training” value is given as “partially inhibited”. The “effect of inhibitor on uptake of TAMRA-labelled DCATH-2 by dTHP-1 cells” value (from here on “effect of inhibitor on uptake … by dTHP-1 cells”) with dTHP-1 cells [2] is given as “reduced uptake”.
As for “LLGDFFRKSKEKIGKEFKRIVQRIKDFLRNLVPRTES [LL-37, human cathelicidin, reference compound]”, in the assay on dTHP-1 cells [3], the “amplification of IL-6 production” value was determined as 1.4 fold.
Consider `CO[C@H]1C[C@@H]2CC[C@@H](C)[C@@](O)(O2)C(=O)C(=O)N2CCCC[C@H]2C(=O)O[C@H]([C@H](C)C[C@@H]2CC[C@@H](O)[C@H](OC)C2)CC(=O)[C@H](C)/C=C(\C)[C@@H](O)[C@@H](OC)C(=O)[C@H](C)C[C@H](C)/C=C/C=C/C=C/1C` [rapamycin], for which the “Pam3CSK-induced TNFα production in the presence of inhibitor” value in the assay with dTHP-1 cells [1] was found to be 318 ± 45 pg/mL.
As for `Oc1c2ccccc2c2c3c(cccc13)N=N2` [SP600125], in the assay with dTHP-1 cells [1], the “effect of inhibitor on DCATH-2 training” value was “no effect”.
In the case of “RFGRFLRKIRRFRPKVTITIQGSARF-NH2 [CATH-2, chicken cathelicidin 2 peptide]”, the “amplification of IL-6 production” value with dTHP-1 cells [3] amounted to 1.8 fold.
In the case of `CCCCCCCCCCCCCCCc1cccc(O)c1C(=O)O` [anacardic acid], the “effect of inhibitor on DCATH-2 training” value in the assay with dTHP-1 cells [1] was “abrogated”.
Consider `NC(=O)c1ncn([C@@H]2O[C@H](COP(=O)(O)O)[C@@H](O)[C@H]2O)c1N` [AICAR, 5-aminoimidazole-4-carboxamide ribonucleotide], for which, in the assay on dTHP-1 cells [1], the “effect of inhibitor on DCATH-2 training” value is given as “did not result in a significant reduction” and the “Pam3CSK-induced TNFα production in the presence of inhibitor” value turned out to be 335 ± 89 pg/mL.
As to `C[S+]([O-])c1ccc(-c2nc(-c3ccncc3)c(-c3ccc(F)cc3)[nH]2)cc1` (stereo not shown) [SB203580], the “effect of inhibitor on DCATH-2 training” value in the assay with dTHP-1 cells [1] is recorded as “completely blocked”.
With `Cc1ccc(C(=O)Nc2ccc(S(=O)(=O)O)c3cc(S(=O)(=O)O)cc(S(=O)(=O)O)c23)cc1NC(=O)c1cccc(NC(=O)Nc2cccc(C(=O)Nc3cc(C(=O)Nc4ccc(S(=O)(=O)O)c5cc(S(=O)(=O)O)cc(S(=O)(=O)O)c45)ccc3C)c2)c1` [suramin], the “effect of inhibitor on DCATH-2 training” value in the assay on dTHP-1 cells [1] is on record as “completely impaired”. In addition, the “effect of inhibitor on uptake … by dTHP-1 cells” value with dTHP-1 cells [2] is on record as “reduced uptake”.
`CCC(CC)(NC(=O)C(C)C)C(=O)N[C@@H](CCCN=C(N)N)C(=O)NC1(C(=O)NC(c2ccc(F)cc2)c2ccc(F)cc2)CCCC1` [MM-102]: in the assay with dTHP-1 cells [1], the “effect of inhibitor on DCATH-2 training” value is “not affected”.
In the case of `C[C@@H]1[C@H](O)[C@@H](C)/C=C/C=C/CC/C=C/C=C/C=C/C=C/C(O[C@H]2O[C@H](C)[C@@H](O)[C@H](N)[C@@H]2O)CC2O[C@](O)(CC(O)C(O)CCC(O)CC(O)CC(O)CC(=O)O[C@H]1C)CC(O)C2C(=O)O` (stereo partly shown) [nystatin], the “effect of inhibitor on DCATH-2 training” value in the assay on dTHP-1 cells [1] was “strongly impaired”. In addition, the “effect of inhibitor on uptake … by dTHP-1 cells” value in the assay on dTHP-1 cells [2] is “reduced uptake”.
As for `COc1cc(/C=C/C(=O)CC(=O)/C=C/c2ccc(O)c(OC)c2)ccc1O` [curcumin], the “effect of inhibitor on DCATH-2 training” value in the assay with dTHP-1 cells [1] is reported as “not by garcinol or curcumin”.
Take `CN(C)CCCN1c2ccccc2Sc2ccc(Cl)cc21` [chlorpromazin, chlorpromazine]: the “effect of inhibitor on DCATH-2 training” value in the assay with dTHP-1 cells [1] is “not affected”. In addition, the “effect of inhibitor on uptake … by dTHP-1 cells” value with dTHP-1 cells [2] was “not affected”.
For the compound `CC(C)(C)c1ccc(S(=O)(=O)/C=C/C#N)cc1` [Bay-11-7085], the “effect of inhibitor on DCATH-2 training” value in the assay with dTHP-1 cells [1] was “did not impair”.
On the same count and under the same terms, next, `O=C(O[C@@H]1Cc2c(O)cc(O)cc2O[C@@H]1c1cc(O)c(O)c(O)c1)c1cc(O)c(O)c(O)c1` [EGCG, epigallocatechin gallate]: “abrogated”.
With `COC[C@H]1OC(=O)c2coc3c2[C@@]1(C)C1=C(C3=O)[C@@H]2CCC(=O)[C@@]2(C)C[C@H]1OC(C)=O` [wortmannin], the “Pam3CSK-induced TNFα production in the presence of inhibitor” value with dTHP-1 cells [1] stood at 354 ± 135 pg/mL.
On to `CN(C)C(=N)N=C(N)N` [metformin], for which, in the assay with dTHP-1 cells [1], the “effect of inhibitor on DCATH-2 training” value was “did not result in a significant reduction” and the “Pam3CSK-induced TNFα production in the presence of inhibitor” value amounted to 387 ± 99 pg/mL.
